According to US9138659B2, “Compositions, methods, and systems relating to controlled crystallization and/or nucleation of molecular species” (Massachusetts Institute of Technology, priority 2010, dated 2015):
Converted amounts (≈) assume the structure as drawn.

What was measured:
Type in all cases: physicochemical
[1] = Nucleation induction time of ASA / ACM with PEGDA or PEGDA-co-AM microgels in 38/62 ethanol/water; conditions: for Average nucleation induction time τ (stretched exponential fit): ASA S=2.1; for τ1 (two-exponential fit) / τ2 (two-exponential fit): ASA; for optimum mesh size for inducing ASA nucleation: PEGDA particles
Description: Nucleation kinetics of model compounds was investigated by measuring the nucleation induction time probability distribution. Nucleation induction time is generally time elapsed prior to the formation of a detectable amount of the new crystalline phase. It is a useful indicator of the surface nucleation activity because it can be dramatically shortened when the presence of an interface lowers the free energy barrier of nucleation. Due to the stochastic nature of nucleation events, a large number of experiments were performed to obtain the probability distribution of nucleation induction time. To obtain the average induction time τ, statistical analysis on the induction time data was conducted based on the understanding that nucleation follows a Poisson distribution. According to Poisson statistics, the probability for a nucleation event to occur beyond time t is P=exp(−t/τ), which implies that the fraction of vials without nucleation at time t exponentially decays as a function of time, where the scaling factor for time is the average induction time.
For determining the statistical analysis of aspirin nucleation induction time with PEGDA particles of various mesh sizes (particles denoted by Mn), 1.9 mL of 38 mg/ml ASA solution in 38/62 ethanol/water (v/v) with 15 μg/mL PEGDA particles was cooled at a rate of 5° C./min from 35° C. to 15° C. to achieve a supersaturation of 2.1. The solution was stirred at 700 rpm. The onset of nucleation was detected by an IR probe which measures the transmission signal through the solution. A total of 10 vials were cycled for 5-10 times to yield 50-100 nucleation induction time measurements for the statistical analysis.
The nucleation rate, J, is given by J=1/τV, where τ the average induction time (Table 1) and V the volume of solution. For this equation to be valid, the assumption is that the crystal growth rate is much faster than the nucleation rate, which is the case for ASA. […] Other crystallization conditions were kept the same.
[…] The solution was stirred at 700 rpm. The onset of nucleation was detected by an IR probe which measures the transmission signal through the solution. A total of 10 vials were cycled for 5-10 times to yield 50-100 nucleation induction time data for the statistical analysis.
Effect of polymer gels on nucleation induction time statistics: To evaluate the impact of polymer-solute interactions on nucleation kinetics, induction times of ASA and ACM were measured with microgels of a series average mesh sizes before and after chemical modification suspended in respective supersaturated solutions. […] For each system, a large number of experiments (50-100) were conducted to obtain the induction time probability distribution. The nucleation induction time generally follows the Poisson distribution. However, deviations can occur, as observed in this study, when there is more than one type of nucleation sites in a sample, giving rise to multiple Poisson processes with different characteristic time scales.
For samples with PEGMDA microgels, the nucleation induction time distributions reported in previous work can be faithfully described by stretched exponentials (Tables 5 and 6), P=exp[−(t/τ)^β], where P is the probability to observe no crystallization event within time t, τ the average induction time. The stretched exponential exponent β served as a measure for the spread of time scales characterizing the nucleation process, or the distribution of kinetic barriers arisen from the heterogeneity of the system. Such heterogeneity can be attributed to the heterogeneity of the polymer microstructure identified using SANS, which resulted from a distribution of nucleation sites arising from spatial variations in both the mesh size and chemical composition of the hydrogel at nanometer length scales. Note that β varies with the average mesh size of the microgel. […]

[2] = Nucleation induction time of aspirin on nanopatterned AA-co-DVB polymer films from butyl acetate; conditions: for Nucleation induction time τ: aspirin, butyl acetate
Description: The effect of nanopatterned polymer films on the kinetics of nucleation from solution was quantified by measuring the nucleation induction time of aspirin, a representative small organic molecule. The polymer film was made from acrylic acid crosslinked with divinylbenzene (AA-co-DVB), with which aspirin could interact via hydrogen bonding. Polymer crosslinking was designed to avoid solvent uptake and to maintain the surface morphology when in contact with the solution. Due to the stochastic nature of nucleation events, 20 to 50 samples were tested simultaneously to obtain the probability distribution for the nucleation induction time. The average induction time, τ, was determined from a statistical analysis on the induction time data assuming that nucleation follows a Poisson distribution, P(t)=exp(−t/τ). The nucleation rate, J, was calculated from τ via J=1/τV, where V is the volume of solution, with the assumption that the time scale of nucleation is much longer than that of crystal growth, valid for this system.
In FIG. 14: Effect of the nanopore shape in AA-co-DVB polymer films on the nucleation kinetics of aspirin: flat vs. spherical pores (left); spherical pores vs. hexagonal pores and square pores of the same size (right). J is the nucleation rate, in number of nuclei per ml of solution per hour, calculated from the average nucleation induction time τ by J=1/τV, where V is the volume of solution. The standard errors of J were calculated from the regression on the induction time probability distribution following the Poisson distribution.
Nucleation Induction Time Measurement: Once synthesized, the polymer film with its substrate was inserted vertically into a 1 ml glass shell vial containing 200 μl 47 mg/ml aspirin solution in butyl acetate. For each polymer sample, 20-50 vials were assembled and immersed in a circulator stabilized at 50±0.1° C. to dissolve any pre-existing crystals, and then the solution was quench cooled to 5±0.1° C. by immersing into a second circulator. The number of vials in which crystallization occurred was recorded as a function of time. All the operations involving exposing polymer films, aspirin solutions and shell vials to the atmosphere were conducted inside a Bio Safety Cabinet to reduce impurity contamination to the lowest level. Efforts were made to clean all components before usage and aspirin solutions were filtered with an Acrodisc 0.2 μm PTFE syringe filter.

[3] = Isothermal titration calorimetry of ASA adsorption onto microgels; conditions: 38/62 ethanol/water, 23° C
Description: The ASA-polymer interactions were further quantified with the solute adsorption enthalpy via Isothermal Titration calorimetry (ITC), which also helps to deepen the understanding of partitioning effect. […] The data are presented both as instantaneous enthalpies at a given concentration, ΔHASA-gel (top), and as cumulative enthalpies up to a certain concentration, ΔHASA-gel ^tot (bottom).
Isothermal titration calorimetry (ITC): ITC measurements were performed on a TA Instruments NanoITC calorimeter. All experiments were performed at 23° C. using injections of ΔV=10 μL of titrant, with a waiting time of 1000 sec in between injections and 25 injections per measurement. For all measurements, The differential heat input, q(t), was measured as a function of time t over all injections, followed by integration of q(t) over each individual injection to obtain the molar heat of injection, Q(T,P,c). The molar heat of injection can then be cumulatively added over all previous injections, yielding the total molar heat, Qtot(T,P,c). […]
where ΔHASA-gel is the molar enthalpy of interaction between ASA and the microgel particles, and ΔHdil^i is the molar enthalpy of dilution of component i (ASA or gel, respectively) in 38/62 (v/v) ethanol/water. […] (X) was used to subtract the measured dilution enthalpies from the initial measurements of Q(T,P,c) in order to obtain ΔHASA-gel. […]

[4] = Solubility of ASA and ACM
[5] = PEGDA-co-AM microgels M 130 g/mol
[6] = PEGDA-co-AM microgels M 200 g/mol
[7] = PEGDA-co-AM microgels M 400 g/mol
[8] = PEGDA-co-AM microgels M 575 g/mol
[9] = PEGDA-co-AM microgels M 700 g/mol

SMILES: CC(=O)Oc1ccccc1C(=O)O [aspirin]
- average nucleation induction time τ ([1]; ASA S = 2.1, Bulk (no particles), 38/62 ethanol/water): ∞
- average nucleation induction time τ ([1]; ASA S = 2.1, PEGDA microparticles Mn 130 g/mol, 38/62 ethanol/water): ∞
- average nucleation induction time τ ([1]; ASA S = 2.1, PEGDA microparticles Mn 200 g/mol, 38/62 ethanol/water): 910 ± 40 min
- average nucleation induction time τ ([1]; ASA S = 2.1, PEGDA microparticles Mn 400 g/mol, 38/62 ethanol/water): 60 min
- average nucleation induction time τ ([1]; ASA S = 2.1, PEGDA microparticles Mn 400 g/mol, 38/62 ethanol/water, listed as ASA): 63 ± 3 min
- average nucleation induction time τ ([1]; ASA S = 2.1, PEGDA microparticles Mn 575 g/mol, 38/62 ethanol/water): 1900 ± 100 min
- average nucleation induction time τ ([1]; ASA S = 2.1, PEGDA microparticles Mn 700 g/mol, 38/62 ethanol/water): 6600 ± 1100 min
- average nucleation induction time τ ([1]; ASA S = 3.3, Bulk (no particles), 38/62 ethanol/water): 2500 ± 600 min
- average nucleation induction time τ ([1]; ASA S = 3.3, PEGDA microparticles Mn 130 g/mol): 330 ± 60 min
- average nucleation induction time τ ([1]; ASA S = 3.3, PEGDA microparticles Mn 200 g/mol): 52 ± 3 min
- average nucleation induction time τ ([1]; ASA S = 3.3, PEGDA microparticles Mn 400 g/mol): 123 ± 7 min
- average nucleation induction time τ ([1]; ASA S = 3.3, PEGDA microparticles Mn 700 g/mol): 240 ± 20 min
- Average nucleation induction time τ (stretched exponential fit) ([1]; Bulk / PEGDA microgels M 130 g/mol): Not detectable
- Average nucleation induction time τ (stretched exponential fit) ([1]; PEGDA microgels M 200 g/mol): 1052 min
- Average nucleation induction time τ (stretched exponential fit) ([1]; PEGDA microgels M 400 g/mol): 66.7 min
- Average nucleation induction time τ (stretched exponential fit) ([1]; PEGDA microgels M 575 g/mol): 3500 min
- Average nucleation induction time τ (stretched exponential fit) ([1]; PEGDA microgels M 700 g/mol): 210000 min
- τ1 (two-exponential fit) [1, 5]: 170 min
- τ2 (two-exponential fit) [1, 5]: 4900 min
- τ1 (two-exponential fit) [1, 6]: 21 min
- τ2 (two-exponential fit) [1, 6]: 99 min
- τ1 (two-exponential fit) [1, 7]: 39 min
- τ2 (two-exponential fit) [1, 7]: 400 min
- τ1 (two-exponential fit) [1, 8]: 51 min
- τ2 (two-exponential fit) [1, 8]: 470 min
- τ1 (two-exponential fit) [1, 9]: 33 min
- τ2 (two-exponential fit) [1, 9]: 720 min
- optimum mesh size for inducing ASA nucleation ([1]; 8° C, higher supersaturation (3.4)): 10 Å
- optimum mesh size for inducing ASA nucleation ([1]; 15° C, supersaturation 2.1): approximately 15 Å
- promotion of nucleation kinetics when AM co-monomer was introduced into the PEGDA matrix ([1]; PEGDA-co-AM vs PEGDA microgels): up to four orders of magnitude
- best enhancement in nucleation kinetics by addition of PEGDA particles ([1]; vs bulk, Table 2): many orders of magnitudes
- enhancement of aspirin nucleation rate relative to spherical pores ([2]; AA-co-DVB film with hexagonal pores): more than an order of magnitude
- enhancement of aspirin nucleation rate relative to spherical pores ([2]; AA-co-DVB film with square pores): three-fold
- Nucleation induction time τ ([2]; AA-co-DVB film with hexagonal nanopores, 15 nm): 26 ± 7 min
- Nucleation induction time τ ([2]; AA-co-DVB film with square nanopores, 125 nm): 138 ± 12 min
- enthalpy of adsorption of ASA at infinite dilution ΔHASA-gel^∞ ([3]; PEG400DA microgels): -9.8 kcal/mol
- enthalpy of adsorption of ASA at infinite dilution ΔHASA-gel^∞ ([3]; PEG400DA-co-AM microgels): -12.3 kcal/mol
- solubility ([4]; aqueous with cosolvent or surfactant or cyclodextrin, 38/62 (v/v) ethanol/water mixture at 25° C): 32 mg/mL (≈ 178 mM)
- solubility in water ([4]; water at 3° C): essentially insoluble
